In ChEMBL document CHEMBL5543160, “Psychoplastogenic DYRK1A Inhibitors with Therapeutic Effects Relevant to Alzheimer's Disease” (J Med Chem, 2024):
Activity calls are given as the source filed them. No cut-off for these calls is given here.

Key:
[1] = molecular target: Casein kinase I (Homo sapiens) (UniProt Q9HCP0+P78368+P48730+P49674+P48729); test: Inhibition of CK1 (unknown origin) at 10 uM by DiscoverX KINOMEscan assay; type: protein assay
[2] = molecular target: Cyclin-dependent kinase 7 (Homo sapiens) (UniProt P50613); test: Inhibition of CDK7 (unknown origin) at 10 uM by DiscoverX KINOMEscan assay
Chain of Cyclin-dependent kinase 7 (Homo sapiens) (P50613 whole entry, canonical isoform): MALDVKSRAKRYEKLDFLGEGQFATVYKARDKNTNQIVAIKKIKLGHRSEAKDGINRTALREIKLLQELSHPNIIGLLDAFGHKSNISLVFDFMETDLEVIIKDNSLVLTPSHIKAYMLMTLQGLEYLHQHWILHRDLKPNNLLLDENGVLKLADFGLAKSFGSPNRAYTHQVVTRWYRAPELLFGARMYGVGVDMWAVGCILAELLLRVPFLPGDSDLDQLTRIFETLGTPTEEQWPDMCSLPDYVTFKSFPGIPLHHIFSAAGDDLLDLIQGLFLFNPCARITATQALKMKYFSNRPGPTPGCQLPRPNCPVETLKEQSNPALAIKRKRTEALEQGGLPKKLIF

[3] = molecular target: Phosphatidylinositol 4,5-bisphosphate 3-kinase catalytic subunit gamma isoform (Homo sapiens) (UniProt P48736); test: Inhibition of PIK3CG (unknown origin) at 10 uM by DiscoverX KINOMEscan assay
Chain of Phosphatidylinositol 4,5-bisphosphate 3-kinase catalytic subunit gamma isoform (Homo sapiens) (P48736 whole entry, looked up, canonical isoform): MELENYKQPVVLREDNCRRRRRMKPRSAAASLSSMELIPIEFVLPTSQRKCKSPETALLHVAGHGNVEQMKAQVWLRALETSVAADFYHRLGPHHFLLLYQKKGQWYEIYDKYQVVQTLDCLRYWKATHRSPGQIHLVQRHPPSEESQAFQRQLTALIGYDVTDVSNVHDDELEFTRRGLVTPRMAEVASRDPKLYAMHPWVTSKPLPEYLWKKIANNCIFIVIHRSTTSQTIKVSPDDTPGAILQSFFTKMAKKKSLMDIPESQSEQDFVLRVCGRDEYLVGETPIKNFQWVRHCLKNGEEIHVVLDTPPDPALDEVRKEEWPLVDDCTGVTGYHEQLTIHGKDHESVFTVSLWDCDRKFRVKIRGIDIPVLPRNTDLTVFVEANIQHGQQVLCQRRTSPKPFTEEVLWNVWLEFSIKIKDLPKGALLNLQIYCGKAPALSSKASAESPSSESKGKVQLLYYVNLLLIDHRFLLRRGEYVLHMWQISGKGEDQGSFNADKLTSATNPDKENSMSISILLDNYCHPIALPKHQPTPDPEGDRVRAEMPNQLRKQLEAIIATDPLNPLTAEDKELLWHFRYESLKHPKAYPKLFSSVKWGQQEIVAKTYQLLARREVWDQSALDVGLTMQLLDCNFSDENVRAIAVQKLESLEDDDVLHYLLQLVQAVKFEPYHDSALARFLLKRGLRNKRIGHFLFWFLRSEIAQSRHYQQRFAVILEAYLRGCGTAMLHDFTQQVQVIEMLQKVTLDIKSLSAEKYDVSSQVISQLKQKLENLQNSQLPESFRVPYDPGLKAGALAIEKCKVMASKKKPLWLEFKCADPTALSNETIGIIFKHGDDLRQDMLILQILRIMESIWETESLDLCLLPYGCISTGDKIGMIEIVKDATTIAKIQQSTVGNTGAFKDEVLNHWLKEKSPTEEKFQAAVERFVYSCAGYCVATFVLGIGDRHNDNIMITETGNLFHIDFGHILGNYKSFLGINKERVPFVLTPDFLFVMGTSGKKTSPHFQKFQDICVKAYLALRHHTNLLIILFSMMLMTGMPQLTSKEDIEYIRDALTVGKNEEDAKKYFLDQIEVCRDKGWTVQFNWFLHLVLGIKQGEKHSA

Homo sapiens = species on record: Homo sapiens; test: Inhibition of CAMK (unknown origin) at 10 uM by DiscoverX KINOMEscan assay
Cortical neurone [4] = test: Psychoplastogenic effect in Sprague-Dawley rat cortical neuron assessed as increase in dendritic spine density at 10 uM incubated for 24 hrs by spinogenesis based confocal microscopic analysis; type: functional, cell-based
[5] = molecular target: Microtubule-associated protein tau (Rattus norvegicus) (UniProt P19332); test: Inhibition of okadaic acid-induced Tau hyperphosphorylation Ser202/Thr205 residues in Sprague-Dawley rat cortical neuron at 1 to 50 uM preincubated with compound for 24 hrs followed by okadaic acid addition and measured after 1 hrs by fluorescence based immunohistochemistry analysis; type: cell-based; conditions: dose 1-50 µM
Chain of Microtubule-associated protein tau (Rattus norvegicus) (P19332 whole entry): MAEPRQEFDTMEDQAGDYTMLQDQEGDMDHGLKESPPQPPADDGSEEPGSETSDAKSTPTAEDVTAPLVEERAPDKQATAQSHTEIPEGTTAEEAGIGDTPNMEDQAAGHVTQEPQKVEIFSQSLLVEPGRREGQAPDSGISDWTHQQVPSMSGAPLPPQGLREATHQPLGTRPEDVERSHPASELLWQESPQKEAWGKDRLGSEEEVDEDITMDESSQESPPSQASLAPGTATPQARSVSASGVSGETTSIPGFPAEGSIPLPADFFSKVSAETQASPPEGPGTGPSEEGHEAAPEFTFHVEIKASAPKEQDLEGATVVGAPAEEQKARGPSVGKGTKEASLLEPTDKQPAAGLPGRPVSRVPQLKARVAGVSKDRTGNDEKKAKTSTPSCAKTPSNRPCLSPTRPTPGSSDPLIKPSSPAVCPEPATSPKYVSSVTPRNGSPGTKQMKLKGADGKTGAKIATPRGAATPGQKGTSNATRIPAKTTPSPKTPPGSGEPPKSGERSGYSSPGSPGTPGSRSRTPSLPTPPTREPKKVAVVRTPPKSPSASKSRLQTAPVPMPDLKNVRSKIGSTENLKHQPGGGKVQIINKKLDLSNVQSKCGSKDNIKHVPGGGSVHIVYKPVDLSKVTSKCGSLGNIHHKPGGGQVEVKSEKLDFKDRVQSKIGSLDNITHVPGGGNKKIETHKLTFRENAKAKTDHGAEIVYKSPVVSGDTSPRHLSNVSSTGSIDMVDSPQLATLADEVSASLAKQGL

[6] = molecular target: Dual specificity tyrosine-phosphorylation-regulated kinase 1A (Homo sapiens, UniProt Q13627)
[7] = molecular target: 5-hydroxytryptamine receptor 2A (Homo sapiens) (UniProt P28223); test: Agonist activity at 5-HT2AR (unknown origin) in human PSYLI2 cells assessed as increase in biosensor activation at 10 uM incubated for 5 mins by PsychLight2 assay; type: functional, cell-based; conditions: PSYLI2 cell
Chain of 5-hydroxytryptamine receptor 2A (Homo sapiens) (P28223 whole entry): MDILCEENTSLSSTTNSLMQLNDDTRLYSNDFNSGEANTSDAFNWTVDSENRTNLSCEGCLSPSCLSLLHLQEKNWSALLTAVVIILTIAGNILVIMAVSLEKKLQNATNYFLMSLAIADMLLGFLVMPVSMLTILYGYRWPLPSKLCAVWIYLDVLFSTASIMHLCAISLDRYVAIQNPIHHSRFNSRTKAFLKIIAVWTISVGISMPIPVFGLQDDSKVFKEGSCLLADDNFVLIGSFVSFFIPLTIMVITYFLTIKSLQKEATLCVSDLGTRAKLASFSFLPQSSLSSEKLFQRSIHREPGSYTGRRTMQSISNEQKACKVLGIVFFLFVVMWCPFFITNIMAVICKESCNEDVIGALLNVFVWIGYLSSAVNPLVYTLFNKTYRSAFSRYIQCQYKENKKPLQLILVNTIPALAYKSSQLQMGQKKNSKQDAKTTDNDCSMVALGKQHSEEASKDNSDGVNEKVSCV

[8] = molecular target: 5-hydroxytryptamine receptor 2A (Homo sapiens) (UniProt P28223); test: Antagonist activity at 5-HT2AR (unknown origin) in human PSYLI2 cells assessed as decrease in fluorescence at 10 uM pretreated with 5-HT for 10 mins followed by compound addition and measured after 5 mins by PsychLight2 assay; type: functional, cell-based; conditions: PSYLI2 cell, filed as antagonist
Cortical neurone [9] = test: Induction of neurite outgrowth in Wistar rat Primary cortical neurons assessed as increase in neurite branching incubated for 72 hrs by imaging analysis; type: functional, cell-based; conditions: dose 0.3-10 µM
[10] = Toxicity in C57BL/6J mouse assessed as effect on locomotion upto 30 mg/kg, ip measured for 10 mins; type: organism-based; conditions: in vivo
[11] = Toxicity in C57BL/6J mouse assessed as induction of head-twitch response upto 30 mg/kg, ip measured for 10 mins; type: organism-based; conditions: in vivo
Cortical neurone [12] = test: Induction of neurite outgrowth in Wistar rat Primary cortical neurons assessed as increase in neurite length incubated for 72 hrs by imaging analysis; type: functional, cell-based; conditions: dose 0.3-10 µM
[13] = molecular target: Microtubule-associated protein tau (Rattus norvegicus) (UniProt P19332); test: Inhibition of okadaic acid-induced Tau hyperphosphorylation Ser202/Thr205 residues in Sprague-Dawley rat cortical neuron at 50 uM preincubated with compound for 24 hrs followed by okadaic acid addition and measured after 1 hrs by fluorescence based immunohistochemistry analysis; type: cell-based
Mus musculus = test: Antipsychotic activity in C57BL/6J mouse assessed as reduction in 5-MeO-DMT-induced head-twitch response at 30 mg/kg, ip pretreated with compound for 10 mins followed by 5-MeO-DMT addition and measured after 20 mins; type: functional, organism-based; conditions: time 30.0 min

Row | Compound | Activity (Cortical neurone [4]) | inhibition [5] | IC50 [6] | Activity [7] | Activity [8] | other results
1 | COc1ccc2c(c1)[nH]c1c(C)nccc12 | inactive | Active |  |  |  | inhibition [1]: Active; inhibition [2]: Active; inhibition [3]: Active; inhibition (Homo sapiens): Active
2 | COc1ccc2c(c1)c1ccnc(C)c1n2CCN(C)C |  |  | > 10000 nM | inactive | Active | 
3 | Cc1nccc2c3ccccc3n(CCN(C)C)c12 |  |  | > 10000 nM | inactive | Active | 
4 | NCCc1c[nH]c2ccc(O)cc12 |  |  |  |  |  | Activity ([7]; filed as agonist): Active
5 | CN(C)CCc1c[nH]c2ccccc12 | Active | inactive |  |  |  | 
6 | COc1ccc2c3ccnc(C)c3n(CCN(C)C)c2c1.O=C(O)/C=C/C(=O)O | Active |  | 209 nM |  |  | Activity (Cortical neurone [9]): Dose-Dependent Effect; Activity [10]: Non-Toxic; Activity [11]: Non-Toxic; Activity (Cortical neurone [12]): Dose-Dependent Effect; inhibition [13]: Active; Activity (Mus musculus): Active
7 | COc1ccc2c(c1)S/C(=C\C(C)=O)N2CCN(C)C |  |  |  | inactive | Active | 
8 | CC(=O)/C=C1\Sc2ccccc2N1CCN(C)C |  |  |  | inactive | Active | 
9 | COc1ccc2c(c1)N(CCN(C)C)/C(=C/C(C)=O)S2 |  | inactive | 561 nM |  |  | Activity (Cortical neurone [9]): Dose-Dependent Effect; Activity (Cortical neurone [12]): Dose-Dependent Effect
